We go through one compound from ChEMBL document CHEMBL4673296 (J Med Chem, 2020).

The source made the active and inactive calls. The calls are words filed in the database; no cut-off is given here. A value given as a limit tells only on which side of the number the result lay.

The subject of series [1] is MDA-MB-468. The series can be described thus: Induction of apoptosis in human MDA-MB-468 cells assessed as viable cells at 10 uM measured after 18 hrs in low-glucose, amino acid-free Earles balanced salt solution (EBSS) media by AnnexinV/7-AAD staining based flow cytometric analysis (reference value: 86.6%). It is filed as functional. The conditions noted are these: read-out: Activity.

The subject of series [2] is MDA-MB-468. In words: Induction of apoptosis in human MDA-MB-468 cells assessed as early apoptotic cells at 10 uM measured after 18 hrs in low-glucose, amino acid-free Earles balanced salt solution (EBSS) media by AnnexinV/7-AAD staining based flow cytometric analysis (reference value: 5.6%). It is filed as functional. On the technique in general: Flow cytometry measures light scatter and fluorescence of single cells or particles in a stream.

Series [3] deals with MDA-MB-468. In words: Induction of apoptosis in human MDA-MB-468 cells assessed as necrotic cells at 10 uM measured after 18 hrs in low-glucose, amino acid-free Earles balanced salt solution (EBSS) media by AnnexinV/7-AAD staining based flow cytometric analysis (reference value: 0.1%). It is filed as functional.
The nature of series [4]: AUC (0 to t) in C57BL/6J mouse at 30 mg/kg, po measured upto 24 hrs by LC-MS/MS analysis. The following applies: in vivo. In kind it is ADME, organism-based. Also noted: dose 30 mg/kg, time <=24.
The test system of series [5] is MDA-MB-468. In words: Induction of apoptosis in human MDA-MB-468 cells assessed as early apoptotic cells at 10 uM measured after 18 hrs in normal growth media by AnnexinV/7-AAD staining based flow cytometric analysis (reference value: 5.6%). It is filed as functional.
The subject of series [6] is MDA-MB-468. In words: Synergistic cytotoxicity against human MDA-MB-468 cells a t0.021 to 15 uM in presence of PARP inhibitor olaparib measured after 72 hrs by Celltiter-Glo assay. It is filed as functional, cell-based. The following applies: dose 0.021-15 µM.
A short description of series [7]: Apparent permeability of the compound across basolateral side to apical side in human Caco2 cells. It is filed as ADME, cell-based. The following applies: Caco-2.
For series [8], the target named is T1, Serine/threonine-protein kinase ULK1 (Homo sapiens, UniProt O75385).
T1 sequence (O75385 whole entry): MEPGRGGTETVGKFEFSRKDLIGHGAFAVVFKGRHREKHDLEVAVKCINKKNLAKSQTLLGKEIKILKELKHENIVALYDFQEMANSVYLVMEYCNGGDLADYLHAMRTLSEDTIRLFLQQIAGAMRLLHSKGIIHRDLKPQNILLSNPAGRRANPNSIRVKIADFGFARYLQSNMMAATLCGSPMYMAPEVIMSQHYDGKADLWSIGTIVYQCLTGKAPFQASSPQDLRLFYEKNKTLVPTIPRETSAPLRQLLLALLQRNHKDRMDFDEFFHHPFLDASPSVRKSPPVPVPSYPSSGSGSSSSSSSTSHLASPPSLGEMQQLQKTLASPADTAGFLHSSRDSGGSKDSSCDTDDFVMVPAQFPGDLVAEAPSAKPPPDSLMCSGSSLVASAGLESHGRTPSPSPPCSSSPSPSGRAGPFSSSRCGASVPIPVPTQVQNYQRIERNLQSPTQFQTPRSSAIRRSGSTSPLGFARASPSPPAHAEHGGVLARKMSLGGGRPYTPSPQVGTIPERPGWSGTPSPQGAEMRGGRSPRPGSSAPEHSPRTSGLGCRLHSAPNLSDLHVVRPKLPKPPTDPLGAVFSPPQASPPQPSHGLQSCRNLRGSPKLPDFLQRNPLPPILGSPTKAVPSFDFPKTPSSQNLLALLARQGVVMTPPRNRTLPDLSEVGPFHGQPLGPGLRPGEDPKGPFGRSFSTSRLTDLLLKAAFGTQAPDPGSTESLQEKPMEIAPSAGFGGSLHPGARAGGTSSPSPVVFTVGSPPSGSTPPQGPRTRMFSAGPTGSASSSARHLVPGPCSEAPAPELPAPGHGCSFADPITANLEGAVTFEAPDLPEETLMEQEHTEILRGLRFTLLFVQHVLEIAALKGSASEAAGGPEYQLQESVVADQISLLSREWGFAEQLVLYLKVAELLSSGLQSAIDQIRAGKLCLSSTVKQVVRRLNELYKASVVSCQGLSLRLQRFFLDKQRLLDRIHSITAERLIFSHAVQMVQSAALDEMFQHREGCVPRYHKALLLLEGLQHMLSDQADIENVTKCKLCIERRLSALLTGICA
In words: Inhibition of recombinant human ULK1 (1-649) expressed in Sf9 cells using myelin basic protein as substrate by ADP-glo assay. The following applies: sf9.

Series [9] relates to MDA-MB-468. In words: Synergistic cytotoxicity against human MDA-MB-468 cells at 0.19 to 1.7 uM in presence of PARP inhibitor niraparib measured after 72 hrs by Celltiter-Glo assay. It is filed as functional, cell-based. The following applies: dose 0.19-1.7 µM. A general note: ATP-based viability assays read luminescence as a measure of living cells.
Series [10] can be described thus: Inhibition of starvation-induced autophagic flux in human MDA-MB-468 cells expressing tandem-labelled mCherryEGFP-LC3 chimeric protein at 10 uM measured after 18 hrs in EBSS media by flow cytometry (Rvb >90%). In kind it is functional.
Series [11] has as its target T2, Serine/threonine-protein kinase ULK1 (Homo sapiens) (UniProt O75385).
T2 sequence (whole entry): T1 sequence (O75385 whole entry)
In words: Inhibition of Myc-tagged ULK1 (unknown origin) expressed in HEK293T cells cotransfected with wild-type Flag tagged Beclin-1 assessed as decrease in pBeclin1 Ser15 at 10 uM measured after 1 hr by Western blot analysis relative to control. It is filed as cell-based. (In western blotting, separated proteins are transferred to a membrane and probed.)

Series [12] concerns MDA-MB-468. The series can be described thus: Induction of apoptosis in human MDA-MB-468 cells assessed as necrotic cells at 10 uM measured after 18 hrs in normal growth media by AnnexinV/7-AAD staining based flow cytometric analysis (reference value: 0.2%). It is filed as functional.
Series [13] in a line: Half life in C57BL/6J mouse at 30 mg/kg, po measured upto 24 hrs by LC-MS/MS analysis. It is filed as ADME, organism-based. The following applies: in vivo.
Series [14] can be described thus: Cmax in C57BL/6J mouse at 30 mg/kg, po measured upto 24 hrs by LC-MS/MS analysis. In kind it is ADME, organism-based. Set-up: route oral, dose 30 mg/kg, time <=24. The following applies: in vivo.
Series [15] deals with MDA-MB-468. The series can be described thus: Inhibition of olaparib-induced autophagic flux in human MDA-MB-468 cells expressing tandem-labelled mCherryEGFP-LC3 chimeric protein at 10 uM measured after 48 hrs by flow cytometry. In kind it is functional, cell-based.
Series [16] relates to MDA-MB-468. The series can be described thus: Induction of apoptosis in human MDA-MB-468 cells assessed as late apoptotic cells at 10 uM measured after 18 hrs in low-glucose, amino acid-free Earles balanced salt solution (EBSS) media by AnnexinV/7-AAD staining based flow cytometric analysis (reference value: 7.6%). It is filed as functional.
For series [17], the system named is MDA-MB-468. The series can be described thus: Induction of apoptosis in human MDA-MB-468 cells assessed as viable cells at 10 uM measured after 18 hrs in normal growth media by AnnexinV/7-AAD staining based flow cytometric analysis (reference value: 87.4%). It is filed as functional. The conditions noted are these: read-out: Activity.
For series [18], the target named is T2, Serine/threonine-protein kinase ULK1 (Homo sapiens). The series can be described thus: Binding affinity to recombinant human ULK1 assessed as change in melting temperature at 10 uM by thermal shift assay.
Series [19] deals with Mus musculus. In words: Ex vivo inhibition of ULK1 in liver lysate of C57BL/6J mouse assessed as decrease in pATG13 (Ser318) levels at 10 mg/kg, po measured after 2 hrs by Western blot analysis. In kind it is functional, organism-based.
Series [20] is described as follows: Tmax in C57BL/6J mouse at 30 mg/kg, po measured upto 24 hrs by LC-MS/MS analysis. It is filed as ADME, organism-based. The conditions noted are these: in vivo.
In series [21] the test system is MDA-MB-468. In words: Induction of apoptosis in human MDA-MB-468 cells assessed as late apoptotic cells at 10 uM measured after 18 hrs in normal growth media by AnnexinV/7-AAD staining based flow cytometric analysis (reference value: 6.8%). In kind it is functional.
For series [22], the system named is Mus musculus. The series can be described thus: Decrease in total ATG13 level in liver lysate of C57BL/6J mouse at 10 mg/kg, po measured after 2 hrs by Western blot analysis. It is filed as functional, organism-based.

For orientation: AUC(0-t) means exposure summed from dosing to a finite time, without extrapolation to infinity. A higher AUC(0-t) goes with high exposure. Usually Papp B→A stands for how fast a substance crosses the layer from the basolateral side. A word on the IC50: it is the midpoint of a concentration-inhibition curve. For orientation: inhibition means the drop in the measured response relative to a control, in per cent. A word on the half-life: it is how long it takes for the measured level to halve. Read a low half-life as fast loss. The Cmax is the maximum level reached in the sampled fluid or tissue. For orientation: ΔTm means the change in melting temperature against a reference sample. By Tmax is commonly meant the time from dosing to the highest level. On to `COc1ccc(Nc2ncc(C(F)(F)F)c(NC3CC3)n2)cc1OC`, for which the viability at 10 µM in the series on MDA-MB-468 [1] was 38.6%; in the series on MDA-MB-468 [17] it was 64.1%. Further, the Activity in the series with MDA-MB-468 [2] is recorded as 42.9%; in the series on MDA-MB-468 [3], 0.1%; in the series with MDA-MB-468 [5], 28.9%; with MDA-MB-468 [12], 0.2%; in the series with MDA-MB-468 [16], 18.4%; with MDA-MB-468 [21] it was 6.8%. Further, the exposure AUC(0-t) at 24 h in series [4] was 2.3 µM·h. The result with MDA-MB-468 [6] and in the series with MDA-MB-468 [9] was Active. For the same compound, the Papp B→A in series [7] was greater than 10 ×10⁻⁶ cm/s. The IC50 in series [8] was 0.013 µM. The same compound showed an inhibition at 10 µM in [10] of 60%. Moreover, the inhibition in series [11] is 60%. For the same compound, the half-life in [13] was 1.7 h. For the same compound, in series [14], the Cmax was 990 nM. Further, the inhibition result in the series on MDA-MB-468 [15], in the series on Mus musculus [19] and in the series on Mus musculus [22] was “Active” in each case. Further, the ΔTm in series [18] stood at 8.3 °C. Further, the Tmax in series [20] was determined as 1 h.
